US20230310387A1, “Reduced Dose Metaxalone Formulations” (Primus Pharmaceuticals, Inc., priority 2023, published 2023)

Columns and labels:
[1] = Particle Size Analysis by Sieve Method; assay type: physicochemical; conditions: non-micronized metaxalone
Excerpt: The Sieve Method refers to the method for particle size analysis described in American Society for Testing and Materials (ASTM) standard C 136 (in effect on Jan. 1, 2019). In the method a representative weighed sample is poured into the top sieve which has the largest screen openings. Each lower sieve in the column has smaller openings than the one above. At the base is a round pan, called the receiver. The column is typically placed in a mechanical shaker. such as the sonic sifter available from Endecotts (London, UK). See Endecotts website at https://www.endecotts.com/products/sieve-shakers/sonic-sifter/product-specifications/. The shaker shakes the column, usually for some fixed amount of time. After the shaking is complete the material on each sieve is weighed. The mass of the sample of each sieve is then divided by the total mass to give a percentage retained on each sieve. The size of the average particle on each sieve is then analyzed to get a cut-off point or specific size range, which is then captured on a screen. Tables 2a and 2b describes representative particle sizes for the micronized and non-micronized metaxalone particles used in the formulation of Table 1. [table]

[2] = Particle Size Analysis by Malvern Method; assay type: physicochemical; conditions: micronized metaxalone
Excerpt: In one subembodiment, when the formulation is characterized based on metaxalone particle size, at least 50%, 70%, or 90% of the micronized particles of metaxalone are smaller than 200, 100, or 75 microns when tested according to the Malvern Method (i.e. laser diffraction). Alternatively or in addition, at least 30%, 40%, or 50% of the micronized particles are less than 50, 30, or 20 microns. when tested according to the Malvern Method. Tables 2a and 2b describes representative particle sizes for the micronized and non-micronized metaxalone particles used in the formulation of Table 1. [table]

SMILES	% Retained on Sieve # 30 [1]	% Retained on Sieve # 120 [1]	% Retained on Sieve # 325 [1]	10% of the Particles (d10) [2]	50% of the Particles (d50) [2]	90% of the Particles (d90) [2]
Cc1cc(C)cc(OCC2CNC(=O)O2)c1 (single isomer, unassigned) [Lot2b, metaxalone]	1%	49%	30%			
Cc1cc(C)cc(OCC2CNC(=O)O2)c1 (single isomer, unassigned) [Lot2c, metaxalone]	1%	63%	29%			
Cc1cc(C)cc(OCC2CNC(=O)O2)c1 (single isomer, unassigned) [Lot2d, metaxalone]	1%	61%	28%			
Cc1cc(C)cc(OCC2CNC(=O)O2)c1 (stereo not drawn) [Lot2a, metaxalone]				0.81 µ	10.11 µ	49.91 µ
